Data published in US9732070B2, “Protein kinase C inhibitors and uses thereof” (Rigel Pharmaceuticals, Inc., priority 2009, dated 2017).

System: Human primary T cells
Assay: IL-2 ELISA, human primary T cell, anti-CD3+CD28 stimulation
Type: cell-based
Conditions: IL-2 quantified by ELISA; human primary T cells stimulated with αCD3 and αCD28, 24 hours
Protocol: Human primary T cell isolation and culture: Human primary T cells were prepared as follows. Whole blood was obtained from a healthy volunteer, mixed 1:1 with PBS, layered on to Ficoll Hypaque (Amersham Pharmacia Biotech, Piscataway, N.J., Catalog #17-1440-03) in 2:1 blood/PBS:ficoll ratio and centrifuged for 30 minutes at 4° C. at 1750 rpm. The cells at the serum: ficoll interface were recovered and washed twice with 5 volumes of PBS. These freshly isolated human peripheral blood mononuclear cells were cultured in Yssel's medium containing 40 U/mL IL2 in a flask pre-coated with 1 μg/mL αCD3 and 5 μg/mL αCD28 (Anti-Human CD3, BD Pharmingen Catalog #555336, Anti-Human CD28, Beckman Coulter Catalog #IM1376). The cells were stimulated for 3-4 days, then transferred to a fresh flask and maintained in RPMI (RPMI-1640 with L-Glutamine; Mediatech, Inc., Herndon Va., cat. #10-040-CM) with 10% FBS and 40 U/mL IL-2. The primary T-cells were then washed twice with PBS to remove the IL-2.
Primary T cell stimulation and IL2 ELISA: Human primary T cells (100,000 cells per well) were pre-incubated with or without test compound in Yssel's medium for 1 hour at 37° C. Cells were then stimulated by transferring them to round-bottom 96-well plates pre-coated with 1 μg/ml αCD3 and 5 μg/ml αCD28. For counter assay, cells were instead stimulated by adding 8× stock solutions of PMA and ionomycin in Yssels (for final concentrations of 0.5 ng/ml PMA and 0.1 uM ionomycin, both from Calbiochem). Cells were incubated at 37° C. for 24 hours before 100 μL supernatants were harvested for quantification of IL-2 by ELISA using Human IL-2 Duoset ELISA Kit from R and D Systems, Cat. # DY202E.

Row | IC50 | SMILES
1 | 510 to 2990 nM | CC1(C)CC(Nc2nc(Nc3ccc(F)c(-n4nnn(CCF)c4=O)c3)ncc2F)CC(C)(C)N1 [I-7, 5-fluoro-n2-{4-fluoro-3-[4-(2-fluoroethyl)-1,2,3,4-tetrazol-5-one-1-yl]}phenyl-n4-(2,2,6,6-tetramethylpiperidin-4-yl)-2,4-pyrimidinediamine]
2 | < 500 nM | CC(C)Oc1ccc(Nc2ncc(F)c(NC3CC(C)(C)N(C)C(C)(C)C3)n2)cc1-n1nnn(C)c1=O [I-10, 5-fluoro-n2-{4-isopropoxy-[3-(4-methyl)-1,2,3,4-tetrazol-5-one-1-yl]}phenyl-n4-(1,2,2,6,6-pentamethylpiperidin-4-yl)-2,4-pyrimidinediamine]
3 | < 500 nM | CC(C)Oc1ccc(Nc2ncc(F)c(NC3CC(C)(C)NC(C)(C)C3)n2)cc1-n1nnn(C)c1=O [I-11, 5-fluoro-n2-{4-isopropoxy-[3-(4-methyl)-1,2,3,4-tetrazol-5-one-1-yl]}phenyl-n4-(2,2,6,6-tetramethylpiperidin-4-yl)-2,4-pyrimidinediamine]
4 | < 500 nM | CN1C(C)(C)CC(Nc2nc(Nc3cc(F)cc(-n4nnn(C)c4=O)c3)ncc2F)CC1(C)C [I-22, 1-(3-(4-(1,2,2,6,6-pentamethylpiperidin-4-ylamion)-5fluoropyrimidin-2-ylamino)-5-fluorophenyl)-4-methyl-1H-tetrazol-5(4H)-one]

Same assay, conditions: T-cell; IL-2 quantified by ELISA; human primary T cells stimulated with αCD3 and αCD28, 24 hours

Row | IC50 | SMILES
5 | 3000 to 25000 nM | CN1C(C)(C)CC(Nc2nc(Nc3ccc(F)c(-n4nn[nH]c4=O)c3)ncc2F)CC1(C)C [I-1, 5-fluoro-n2-{4-fluoro-[3-(4-h)-1,2,3,4-tetrazol-5-one-1-yl]}phenyl-n4-(1,2,2,6,6-pentamethylpiperidin-4-yl)-2,4-pyrimidinediamine]
6 | > 25000 nM | CC1(C)CC(Nc2nc(Nc3ccc(F)c(-n4nn[nH]c4=O)c3)ncc2F)CC(C)(C)N1 [I-2, 5-fluoro-n2-{4-fluoro-[3-(4-h)-1,2,3,4-tetrazol-5-one-1-yl]}phenyl-n4-(2,2,6,6-tetramethylpiperidin-4-yl)-2,4-pyrimidinediamine]
7 | < 500 nM | CN1C(C)(C)CC(Nc2nc(Nc3ccc(F)c(-n4nnn(C)c4=O)c3)ncc2F)CC1(C)C [I-3, 5-fluoro-n2-{4-fluoro-[3-(4-methyl)-1,2,3,4-tetrazol-5-one-1-yl]}phenyl-n4-(1,2,2,6,6-pentamethylpiperidin-4-yl)-2,4-pyrimidinediamine]
8 | < 500 nM | Cn1nnn(-c2cc(Nc3ncc(F)c(NC4CC(C)(C)NC(C)(C)C4)n3)ccc2F)c1=O [I-4]
9 | 510 to 2990 nM | CC(C)n1nnn(-c2cc(Nc3ncc(F)c(NC4CC(C)(C)N(C)C(C)(C)C4)n3)ccc2F)c1=O [I-5, 5-fluoro-n2-{4-fluoro-[3-(4-isopropyl)-1,2,3,4-tetrazol-5-one-1-yl]}phenyl-n4-(1,2,2,6,6-pentamethylpiperidin-4-yl)-2,4-pyrimidinediamine]
10 | 510 to 2990 nM | CC(C)n1nnn(-c2cc(Nc3ncc(F)c(NC4CC(C)(C)NC(C)(C)C4)n3)ccc2F)c1=O [I-6]
11 | < 500 nM | Cc1ccc(Nc2ncc(F)c(NC3CC(C)(C)N(C)C(C)(C)C3)n2)cc1-n1nnn(C)c1=O [I-8, 5-fluoro-n2-{4-methyl-[3-(4-methyl)-1,2,3,4-tetrazol-5-one-1-yl]}phenyl-n4-(1,2,2,6,6-pentamethylpiperidin-4-yl)-2,4-pyrimidinediamine]
12 | < 500 nM | Cc1ccc(Nc2ncc(F)c(NC3CC(C)(C)NC(C)(C)C3)n2)cc1-n1nnn(C)c1=O [I-9, 5-fluoro-n2-{4-methyl-[3-(4-methyl)-1,2,3,4-tetrazol-5-one-1-yl]}phenyl-n4-(2,2,6,6-tetramethylpiperidin-4-yl)-2,4-pyrimidinediamine]
13 | 510 to 2990 nM | CN1C(C)(C)CC(Nc2nc(Nc3cccc(-n4nnn(C)c4=O)c3)ncc2F)CC1(C)C [I-12, 5-fluoro-n2-[3-(4-methyl)-1,2,3,4-tetrazol-5-one-1-yl]phenyl-n4-(1,2,2,6,6-pentamethylpiperidin-4-yl)-2,4-pyrimidinediamine]
14 | 510 to 2990 nM | Cn1nnn(-c2cccc(Nc3ncc(F)c(NC4CC(C)(C)NC(C)(C)C4)n3)c2)c1=O [I-13]
15 | < 500 nM | Cn1nnn(-c2cc(Nc3ncc(F)c(NC4CC(C)(C)NC(C)(C)C4)n3)c(F)cc2C2CC2)c1=O [I-14]
16 | < 500 nM | Cn1nnn(-c2cc(Nc3ncc(C#N)c(NC4CC(C)(C)NC(C)(C)C4)n3)c(F)cc2C2CC2)c1=O [I-15, 5-cyano-N2-{4-cyclopropyl-6-fluoro[3-(4-methyl)-1,2,3,4-tetrazol-5-one-1-yl]}phenyl-N4-(2,2,6,6-tetramethylpiperidin-4-yl)-2,4-pyrimidineamine]
17 | < 500 nM | CN1C(C)(C)CC(Nc2nc(Nc3cc(-n4nnn(C)c4=O)c(C4CC4)cc3F)ncc2F)CC1(C)C [I-16, N2-{4-cyclopropyl-6-fluoro-[3-(4-methyl)-1,2,3,4-tetrazol-5-one-1-yl]}phenyl-5-fluoro-N4-(1,2,2,6,6-pentamethylpiperidin-4-yl)-2,4-pyrimidineamine]
18 | < 500 nM | CN1C(C)(C)CC(Nc2nc(Nc3cc(-n4nnn(C)c4=O)c(C4CC4)cc3F)ncc2C#N)CC1(C)C [I-17, 5-cyano-N2-{4-cyclopropyl-6-fluoro-[3-(4-methyl)-1,2,3,4-tetrazol-5-one-1-yl]}phenyl-N4-(1,2,2,6,6-pentamethylpiperidin-4-yl)-2,4-pyrimidinediamine]
19 | < 500 nM | CN1C(C)(C)CC(Nc2nc(Nc3ccc(OC(C)(C)C(F)(F)F)c(-n4nnn(C)c4=O)c3)ncc2F)CC1(C)C [I-18, 1-(2-(1,1,1-trifluoro-2-methylpropan-2-yloxy)-5-(4-(1,2,2,6,6-pentamethylpiperidin-4-ylamino)-5-fluoropyrimidin-2-ylamino)phenyl)-4-methyl-1H-tetrazol-5(4H)-one]
20 | < 500 nM | Cn1nnn(-c2cc(Nc3ncc(F)c(NC4CC(C)(C)NC(C)(C)C4)n3)ccc2OC(C)(C)C(F)(F)F)c1=O [I-19, 1-(2-(1,1,1-trifluoro-2-methylpropan-2-yloxy)-5-(4-(2,2,6,6-tetramethylpiperidin-4-ylamino)-5-fluoropyrimidin-2-ylamino)phenyl)-4-methyl-1H-tetrazol-5(4H)-one]
21 | < 500 nM | CN1C(C)(C)CC(Nc2nc(Nc3ccc(OC4COC4)c(-n4nnn(C)c4=O)c3)ncc2F)CC1(C)C [I-20, 1-(5-(4-(1,2,2,6,6-pentamethylpiperidin-4-ylamino)-5fluoropyrimidine-2-ylamino)-2-(oxetan-3-yloxy)phenyl)-4-methyl-1H-tetrazol-5(4H)-one]
22 | < 500 nM | Cn1nnn(-c2cc(Nc3ncc(F)c(NC4CC(C)(C)NC(C)(C)C4)n3)ccc2OC2COC2)c1=O [I-21, 1-(5-(4-(2,2,6,6-gtetramethylpiperidin-4-ylamino)-5-fluoropyrimidin-2-ylamino)-2-(oxetan-3-yloxy)phenyl)-4-methyl-1H-tetrazol-5(4H)-one]
23 | < 500 nM | Cn1nnn(-c2cc(F)cc(Nc3ncc(F)c(NC4CC(C)(C)NC(C)(C)C4)n3)c2)c1=O [I-23, 1-(3-(4-(2,2,6,6-tetramethylpiperidin-4-ylamino)-5-fluoropyrimidin-2-ylamino)-5-fluorophenyl)-4-methyl-1H-tetrazol-5(4H)-one]
24 | < 500 nM | CN1C(C)(C)CC(Nc2nc(Nc3cc(OC4COC4)cc(-n4nnn(C)c4=O)c3)ncc2F)CC1(C)C [I-24, 1-(3-(4-(1,2,2,6,6-pentamethylpiperidin-4-ylamino)-5-fluoropyrimidin-2-ylamino)-5-(oxetan-3-yloxy)phenyl)-4-methyl-1H-tetrazol-5(4H)-one]
25 | < 500 nM | Cn1nnn(-c2cc(Nc3ncc(F)c(NC4CC(C)(C)NC(C)(C)C4)n3)cc(OC3COC3)c2)c1=O [I-25, 1-(3-(4-(2,2,6,6-tetramethylpiperidin-4-ylamino)-5-fluoropyrimidin-2-ylamino)-5-(oxetan-3-yloxy)phenyl)-4-methyl-1H-tetrazol-5(4H)-one]
26 | < 500 nM | CN1C(C)(C)CC(Nc2nc(Nc3ccc(OC4CCOCC4)c(-n4nnn(C)c4=O)c3)ncc2F)CC1(C)C [I-26]
27 | < 500 nM | Cn1nnn(-c2cc(Nc3ncc(F)c(NC4CC(C)(C)NC(C)(C)C4)n3)ccc2OC2CCOCC2)c1=O [I-27, N2-{4-(tetrahydropyran-4-yloxy)-[3-(4-methyl)-1,2,3,4-tetrazol-5-one-1-yl]}phenyl-5-fluoro-N4-(2,2,6,6-tetramethylpyridin-4-yl)-2,4-pyrimidinediamine]
28 | < 500 nM | Cn1nnn(-c2cc(Nc3ncc(F)c(NC4CC(C)(C)NC(C)(C)C4)n3)ccc2OCC2(C)COC2)c1=O [I-28, 5-fluoro-N2-{4-(3-methyloxetan-3-yl)methody-3-[(4-methyl)-1,2,3,4-tetrazol-5-one-1-yl]}phenyl-N4-(2,2,6,6-tetramethylpiperidin-4-yl)-2,4pyrimidinediamine]
29 | < 500 nM | CN1C(C)(C)CC(Nc2nc(Nc3ccc(Cl)c(-n4nnn(C)c4=O)c3)ncc2F)CC1(C)C [I-29, N2-{4-chloro-[3-(4-methyl)-1,2,3,4-tetrazol-5-one-1-yl]}phenyl-5-fluoro-N4-(1,2,2,6,6-pentamethylpiperidin-4-yl)-2,4-pyrimidinediamine]
